What was measured:
insulin receptor = settings: cited from earlier work
[1] = cited from earlier work
[2] = target: human insulin receptor, isoform B (hIR, IR-B) (human) (UniProt P06213)

Substance | receptor affinity relative to native insulin (fold lower) (insulin receptor) | also measured
des-pentapeptide(B26-B30)-[PheB25-α-carboxamide]insulin | native-like | –
des-heptapeptide(B24-B30)-[GlyB23-α-carboxamide]insulin | ~ 500 fold | –
des-hexapeptide(B25-B30)-[PheB24-α-carboxamide]insulin | ~ 20 fold | –
HisA8 human insulin: human insulin with ThrA8 substituted by histidine (literature) | – | increase in potency on substitution of human insulin ThrA8 by histidine [1]: three-fold
DOI with TyrB20 substitution (peptide) | – | bioactivity (insulin receptor activation assay), fold increase against DOI [2]: 5 fold

From PMC7374640 (Nature structural & molecular biology, 2020)
